Results as given in publication PMC9851200, “Multiparameter phenotypic screening for endogenous TFEB and TFE3 translocation identifies novel chemical series modulating lysosome function” (Autophagy, 2022).
Where two headings read alike, the source gives them in different places.

What was measured:
[1] = target: T1, cellular kinases of SH-SY5Y cells (Homo sapiens, UniProt O95835); assay: biochemical; type: binding; details: 2µM, SH-SY5Y cells, read-out: KiNativ in-cell binding, % Inhibition, LATS1
T1 construct: endogenous in cells; host or cells: SH-SY5Y
Excerpt: (§1) As KINOMEscan is an in vitro assay, and as different cell types have variable kinase expression profiles we sought to determine the kinase binding profile in our SH-SY5Y TFEB-relocalization cell model. […] Bound kinases were pulled down and analyzed by mass spectrometry to determine the in situ kinase binding profile for each compound.

[2] = target: cellular kinases of SH-SY5Y cells (Homo sapiens, UniProt P04049); assay: biochemical; type: binding; details: 2µM; SH-SY5Y cells; Labeling Site Lys2; DMKSNNIFLHEGLTVK; read-out: KiNativ in-cell binding, % Inhibition, RAF1
Excerpt: as §1

[3] = target: cellular kinases of SH-SY5Y cells (Homo sapiens, UniProt P09769); assay: biochemical; type: binding; details: 2µM; SH-SY5Y cells; Labeling Site Activation Loop; LIKDDEYNPCQGSKFPIK; read-out: KiNativ in-cell binding, % Inhibition, FGR
Excerpt: as §1

[4] = target: T2, cellular kinases of SH-SY5Y cells (Homo sapiens, UniProt P23458); assay: biochemical; type: binding; details: 2µM, SH-SY5Y cells
T2 construct: endogenous in cells; host or cells: SH-SY5Y
Excerpt: as §1

[5] = target: cellular kinases of SH-SY5Y cells (Homo sapiens, UniProt P29323); assay: biochemical; type: binding; details: 2µM; SH-SY5Y cells; Labeling Site Activation Loop; FLEDDTSDPTYTSALGGKIPIR; read-out: KiNativ in-cell binding, % Inhibition, EphB2
Excerpt: as §1

[6] = target: cellular kinases of SH-SY5Y cells (Homo sapiens, UniProt P42338); assay: biochemical; type: binding; details: 2µM; SH-SY5Y cells; Labeling Site ATP; VFGEDSVGVIFKNGDDLRQDMLTLQMLR; read-out: KiNativ in-cell binding, % Inhibition, PIK3CB
Excerpt: as §1

[7] = target: cellular kinases of SH-SY5Y cells (Homo sapiens, UniProt Q00535); assay: biochemical; type: binding; details: 2µM, SH-SY5Y cells, read-out: KiNativ in-cell binding, % Inhibition, CDK5
Excerpt: as §1

[8] = target: cellular kinases of SH-SY5Y cells (Homo sapiens, UniProt Q13163); assay: biochemical; type: binding; details: 2µM; SH-SY5Y cells; Labeling Site Lys2; DVKPSNMLVNTR; read-out: KiNativ in-cell binding, % Inhibition, MAP2K5
Excerpt: as §1

[9] = target: T3, cellular kinases of SH-SY5Y cells (Homo sapiens, UniProt Q15208); assay: biochemical; type: binding; details: 2µM, SH-SY5Y cells, read-out: KiNativ in-cell binding, % Inhibition, STK38/NDR1
T3 construct: endogenous in cells; host or cells: SH-SY5Y
Excerpt: as §1

[10] = target: T4, cellular kinases of SH-SY5Y cells (Homo sapiens, UniProt Q16513); assay: biochemical; type: binding; details: 2µM; SH-SY5Y cells; labeling site Lys2; peptide DLKLDNLLLDTEGFVK
T4 construct: endogenous in cells; host or cells: SH-SY5Y
Excerpt: as §1

[11] = target: T5, cellular kinases of SH-SY5Y cells (Homo sapiens, UniProt Q8IZL9); assay: biochemical; type: binding; details: 2µM; SH-SY5Y cells; Labeling Site Lys2; DLKPANLLISASGQLK; read-out: KiNativ in-cell binding, % Inhibition, CDK20
T5 construct: endogenous in cells; host or cells: SH-SY5Y
Excerpt: as §1

[12] = target: T6, cellular kinases of SH-SY5Y cells (Homo sapiens, UniProt Q96GX5); assay: biochemical; type: binding; details: 2µM, SH-SY5Y cells, read-out: KiNativ in-cell binding, % Inhibition, MASTL
T6 construct: endogenous in cells; host or cells: SH-SY5Y
Excerpt: as §1

[13] = target: T7, cellular kinases of SH-SY5Y cells (Homo sapiens, UniProt Q9BYT3); assay: biochemical; type: binding; details: 2µM; SH-SY5Y cells; Labeling Site Lys2; DLKLENIMVK; read-out: KiNativ in-cell binding, % Inhibition, STK33
T7 construct: endogenous in cells; host or cells: SH-SY5Y
Excerpt: as §1

[14] = target: T8, kinases (KINOMEscan panel) (Homo sapiens, UniProt P21709); design: method as in original PKIS2 published data; details: EPHA1; Published KINOMEscan; ref original PKIS2 published data; cited from earlier work
T8 sequence (P21709 26-976): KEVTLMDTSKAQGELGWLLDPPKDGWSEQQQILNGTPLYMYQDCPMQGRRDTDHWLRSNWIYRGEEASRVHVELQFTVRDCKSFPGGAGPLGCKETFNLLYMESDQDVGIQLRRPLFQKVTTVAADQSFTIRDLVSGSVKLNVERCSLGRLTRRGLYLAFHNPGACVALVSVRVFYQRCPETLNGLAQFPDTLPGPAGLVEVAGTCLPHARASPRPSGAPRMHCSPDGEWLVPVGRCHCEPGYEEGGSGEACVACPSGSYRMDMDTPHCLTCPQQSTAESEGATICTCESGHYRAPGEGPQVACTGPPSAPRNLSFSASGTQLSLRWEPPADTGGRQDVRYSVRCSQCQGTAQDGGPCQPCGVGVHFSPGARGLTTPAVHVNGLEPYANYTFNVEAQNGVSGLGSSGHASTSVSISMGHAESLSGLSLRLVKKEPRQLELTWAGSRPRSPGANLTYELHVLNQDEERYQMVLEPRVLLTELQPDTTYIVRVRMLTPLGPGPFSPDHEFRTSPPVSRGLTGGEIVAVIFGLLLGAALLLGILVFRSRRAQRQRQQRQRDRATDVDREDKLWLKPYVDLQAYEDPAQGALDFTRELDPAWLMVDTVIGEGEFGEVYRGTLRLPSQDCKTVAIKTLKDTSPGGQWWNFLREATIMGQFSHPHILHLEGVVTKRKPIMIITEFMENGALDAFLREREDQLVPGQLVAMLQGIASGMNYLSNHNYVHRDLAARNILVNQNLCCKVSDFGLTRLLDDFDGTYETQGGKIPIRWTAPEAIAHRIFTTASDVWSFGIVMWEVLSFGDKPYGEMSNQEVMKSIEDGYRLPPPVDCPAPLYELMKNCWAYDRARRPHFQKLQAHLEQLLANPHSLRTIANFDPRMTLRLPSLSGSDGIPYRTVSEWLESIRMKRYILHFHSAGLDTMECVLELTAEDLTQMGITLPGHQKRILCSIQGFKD

T1 sequence (O95835 whole entry): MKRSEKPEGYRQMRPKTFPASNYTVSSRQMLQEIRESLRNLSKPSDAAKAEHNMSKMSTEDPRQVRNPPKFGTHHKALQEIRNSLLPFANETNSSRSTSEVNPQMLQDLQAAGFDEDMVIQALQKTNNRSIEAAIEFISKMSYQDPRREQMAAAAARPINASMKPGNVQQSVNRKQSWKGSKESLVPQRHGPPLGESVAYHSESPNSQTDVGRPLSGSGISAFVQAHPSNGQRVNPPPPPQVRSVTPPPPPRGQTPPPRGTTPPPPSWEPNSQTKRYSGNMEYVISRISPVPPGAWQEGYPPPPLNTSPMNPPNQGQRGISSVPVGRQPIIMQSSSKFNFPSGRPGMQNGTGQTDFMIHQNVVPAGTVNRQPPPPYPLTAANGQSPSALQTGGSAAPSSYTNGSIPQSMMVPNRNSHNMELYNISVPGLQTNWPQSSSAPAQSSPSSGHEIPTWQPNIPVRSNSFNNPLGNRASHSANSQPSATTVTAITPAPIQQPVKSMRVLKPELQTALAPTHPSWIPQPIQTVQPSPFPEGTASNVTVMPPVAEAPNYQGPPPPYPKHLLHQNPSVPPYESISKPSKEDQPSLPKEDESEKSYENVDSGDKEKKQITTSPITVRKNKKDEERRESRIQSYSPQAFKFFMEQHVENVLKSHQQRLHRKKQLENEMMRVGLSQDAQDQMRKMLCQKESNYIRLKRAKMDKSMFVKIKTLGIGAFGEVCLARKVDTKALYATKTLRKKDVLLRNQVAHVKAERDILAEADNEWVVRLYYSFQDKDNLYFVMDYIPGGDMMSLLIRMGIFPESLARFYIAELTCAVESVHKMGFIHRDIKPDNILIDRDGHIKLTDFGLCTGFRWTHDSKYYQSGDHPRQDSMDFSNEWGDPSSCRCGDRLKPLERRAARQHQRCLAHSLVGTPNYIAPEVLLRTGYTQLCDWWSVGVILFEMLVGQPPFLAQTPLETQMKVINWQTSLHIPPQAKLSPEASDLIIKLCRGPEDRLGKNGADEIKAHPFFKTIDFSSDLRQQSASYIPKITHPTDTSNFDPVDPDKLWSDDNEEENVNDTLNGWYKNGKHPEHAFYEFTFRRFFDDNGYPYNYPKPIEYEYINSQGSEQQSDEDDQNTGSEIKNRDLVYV
T6 sequence (Q96GX5 whole entry): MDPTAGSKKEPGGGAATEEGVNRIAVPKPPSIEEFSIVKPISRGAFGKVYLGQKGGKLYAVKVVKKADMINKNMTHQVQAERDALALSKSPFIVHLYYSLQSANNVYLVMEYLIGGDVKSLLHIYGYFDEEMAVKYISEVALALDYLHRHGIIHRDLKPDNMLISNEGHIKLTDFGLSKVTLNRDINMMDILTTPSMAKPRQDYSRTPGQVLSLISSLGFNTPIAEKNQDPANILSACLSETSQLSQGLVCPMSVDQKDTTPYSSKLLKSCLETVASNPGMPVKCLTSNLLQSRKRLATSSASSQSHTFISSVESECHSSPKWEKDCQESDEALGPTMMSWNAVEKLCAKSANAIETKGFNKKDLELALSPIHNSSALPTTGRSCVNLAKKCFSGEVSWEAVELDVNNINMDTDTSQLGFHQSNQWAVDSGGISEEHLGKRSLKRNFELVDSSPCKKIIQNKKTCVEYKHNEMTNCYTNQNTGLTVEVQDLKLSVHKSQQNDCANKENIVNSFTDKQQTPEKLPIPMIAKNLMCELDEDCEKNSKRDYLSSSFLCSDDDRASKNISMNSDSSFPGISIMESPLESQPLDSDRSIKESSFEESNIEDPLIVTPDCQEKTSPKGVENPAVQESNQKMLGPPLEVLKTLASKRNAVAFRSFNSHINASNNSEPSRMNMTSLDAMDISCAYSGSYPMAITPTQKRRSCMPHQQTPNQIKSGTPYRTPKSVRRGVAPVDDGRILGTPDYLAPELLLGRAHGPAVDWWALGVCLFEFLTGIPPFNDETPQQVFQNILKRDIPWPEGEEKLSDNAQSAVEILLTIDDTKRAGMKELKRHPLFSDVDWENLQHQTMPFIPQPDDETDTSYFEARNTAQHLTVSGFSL
T2 sequence (P23458 whole entry): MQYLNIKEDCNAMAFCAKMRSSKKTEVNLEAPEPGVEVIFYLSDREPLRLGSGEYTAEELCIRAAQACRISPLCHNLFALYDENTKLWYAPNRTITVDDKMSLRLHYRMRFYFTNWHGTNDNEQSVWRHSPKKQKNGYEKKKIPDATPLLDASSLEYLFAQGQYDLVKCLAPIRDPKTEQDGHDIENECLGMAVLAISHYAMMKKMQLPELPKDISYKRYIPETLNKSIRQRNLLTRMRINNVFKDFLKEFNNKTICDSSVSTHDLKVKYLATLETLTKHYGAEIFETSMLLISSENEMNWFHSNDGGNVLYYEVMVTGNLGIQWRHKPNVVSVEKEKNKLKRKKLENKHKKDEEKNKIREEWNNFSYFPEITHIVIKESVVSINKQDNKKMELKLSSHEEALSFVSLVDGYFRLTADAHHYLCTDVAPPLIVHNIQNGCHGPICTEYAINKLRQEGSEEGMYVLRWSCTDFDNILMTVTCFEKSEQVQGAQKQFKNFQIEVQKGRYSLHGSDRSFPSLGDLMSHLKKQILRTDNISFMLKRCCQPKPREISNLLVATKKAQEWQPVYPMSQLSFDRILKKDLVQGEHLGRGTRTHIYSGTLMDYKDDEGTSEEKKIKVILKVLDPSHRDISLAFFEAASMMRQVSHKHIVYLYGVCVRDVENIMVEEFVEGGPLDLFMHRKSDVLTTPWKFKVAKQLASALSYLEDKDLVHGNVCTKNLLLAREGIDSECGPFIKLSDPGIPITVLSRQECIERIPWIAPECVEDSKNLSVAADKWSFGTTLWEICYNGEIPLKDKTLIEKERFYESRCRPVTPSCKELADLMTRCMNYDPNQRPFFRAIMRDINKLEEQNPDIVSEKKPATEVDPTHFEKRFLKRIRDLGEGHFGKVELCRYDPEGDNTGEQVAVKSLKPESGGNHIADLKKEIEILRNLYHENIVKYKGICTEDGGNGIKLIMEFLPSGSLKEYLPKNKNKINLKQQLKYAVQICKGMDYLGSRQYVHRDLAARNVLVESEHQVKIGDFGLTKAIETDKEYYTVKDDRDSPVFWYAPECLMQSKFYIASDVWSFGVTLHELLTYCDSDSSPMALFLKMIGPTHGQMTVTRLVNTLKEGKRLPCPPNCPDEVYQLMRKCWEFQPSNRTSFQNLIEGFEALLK
cellular kinases of SH-SY5Y cells (Homo sapiens, UniProt Q00535), sequence (Q00535 whole entry): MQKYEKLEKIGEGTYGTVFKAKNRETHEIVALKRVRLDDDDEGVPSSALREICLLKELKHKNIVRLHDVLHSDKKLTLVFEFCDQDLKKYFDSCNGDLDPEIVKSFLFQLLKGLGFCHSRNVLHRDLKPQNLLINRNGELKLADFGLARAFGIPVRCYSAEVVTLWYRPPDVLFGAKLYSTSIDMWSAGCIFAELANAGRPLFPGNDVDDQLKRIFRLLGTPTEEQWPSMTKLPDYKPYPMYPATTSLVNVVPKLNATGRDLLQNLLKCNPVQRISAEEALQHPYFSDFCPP
T3 sequence (Q15208 whole entry): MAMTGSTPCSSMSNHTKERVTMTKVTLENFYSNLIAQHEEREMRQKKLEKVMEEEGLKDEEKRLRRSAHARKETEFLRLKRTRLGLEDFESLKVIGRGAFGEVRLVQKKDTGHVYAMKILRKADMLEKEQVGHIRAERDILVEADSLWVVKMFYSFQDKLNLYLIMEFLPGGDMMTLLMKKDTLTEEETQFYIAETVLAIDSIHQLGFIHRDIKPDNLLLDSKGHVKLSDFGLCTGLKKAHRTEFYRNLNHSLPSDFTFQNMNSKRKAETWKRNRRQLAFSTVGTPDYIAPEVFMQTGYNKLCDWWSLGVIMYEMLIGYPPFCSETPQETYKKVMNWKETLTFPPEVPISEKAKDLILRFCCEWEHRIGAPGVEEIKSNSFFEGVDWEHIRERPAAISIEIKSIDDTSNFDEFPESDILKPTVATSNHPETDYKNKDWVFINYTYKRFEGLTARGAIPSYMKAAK
cellular kinases of SH-SY5Y cells (Homo sapiens, UniProt P09769), sequence (P09769 whole entry): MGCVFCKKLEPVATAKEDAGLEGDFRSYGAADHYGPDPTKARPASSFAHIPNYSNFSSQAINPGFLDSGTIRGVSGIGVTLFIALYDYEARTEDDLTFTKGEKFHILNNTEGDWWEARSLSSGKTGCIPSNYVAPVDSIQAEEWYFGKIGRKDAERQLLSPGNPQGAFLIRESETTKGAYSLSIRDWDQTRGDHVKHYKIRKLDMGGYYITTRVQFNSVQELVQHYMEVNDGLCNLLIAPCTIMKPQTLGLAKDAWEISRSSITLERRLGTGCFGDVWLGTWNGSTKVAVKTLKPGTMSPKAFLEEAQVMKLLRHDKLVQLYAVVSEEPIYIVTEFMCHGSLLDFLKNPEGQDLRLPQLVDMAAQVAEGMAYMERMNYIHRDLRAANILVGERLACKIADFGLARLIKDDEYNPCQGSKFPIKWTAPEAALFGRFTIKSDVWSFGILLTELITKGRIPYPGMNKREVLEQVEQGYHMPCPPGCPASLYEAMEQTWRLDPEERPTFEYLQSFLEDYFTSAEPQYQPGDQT
cellular kinases of SH-SY5Y cells (Homo sapiens, UniProt Q13163), sequence (Q13163 whole entry): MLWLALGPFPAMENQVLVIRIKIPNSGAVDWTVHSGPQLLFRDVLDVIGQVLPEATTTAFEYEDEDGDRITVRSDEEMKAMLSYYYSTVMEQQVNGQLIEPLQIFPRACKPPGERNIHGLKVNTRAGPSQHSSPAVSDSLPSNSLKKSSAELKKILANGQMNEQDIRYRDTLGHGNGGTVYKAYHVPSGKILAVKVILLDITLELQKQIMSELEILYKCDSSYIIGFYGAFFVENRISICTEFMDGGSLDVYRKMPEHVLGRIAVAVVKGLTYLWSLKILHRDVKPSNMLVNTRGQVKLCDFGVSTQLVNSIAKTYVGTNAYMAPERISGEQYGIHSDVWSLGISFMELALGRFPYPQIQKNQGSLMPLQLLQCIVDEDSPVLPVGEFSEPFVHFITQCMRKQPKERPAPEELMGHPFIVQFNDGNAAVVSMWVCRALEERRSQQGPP

## Cc1cccc(-c2nc(Nc3ccc4ncsc4c3)c3ccccc3n2)n1 [NK140]
[1]; Labeling Site Lys1, ALYATKTLR
  inhibition at 2 µM: 20.9%
[1]; Labeling Site Lys2, DIKPDNILIDR
  inhibition at 2 µM: 19.3%
[2]
  inhibition at 2 µM: 32.5%
[3]
  inhibition at 2 µM: 20.4%
[4]; Labeling Site Lys1, YDPEGDNTGEQVAVKSLKPESGGNHIADLKK, read-out: KiNativ in-cell binding, % Inhibition, JAK1 domain2
  inhibition at 2 µM: 2.4%
[4]; labeling site Activation Loop, peptide IGDFGLTKAIETDKEYYTVK
  KiNativ in-cell binding, JAK1 domain2: -56.1
[5]
  inhibition at 2 µM: -8.7%
[6]
  inhibition at 2 µM: -11.4%
[7]; Labeling Site Lys1, NRETHEIVALKR
  inhibition at 2 µM: -44.9%
[7]; Labeling Site Lys2, DLKPQNLLINR
  inhibition at 2 µM: -39%
[8]
  inhibition at 2 µM: -14.7%
[9]; Labeling Site Lys1, DTGHVYAMKILR
  inhibition at 2 µM: -36.9%
[9]; Labeling Site Lys2, DIKPDNLLLDSK
  inhibition at 2 µM: 20.9%
[10]
  KiNativ in-cell binding, PKN2: -28.2
[11]
  inhibition at 2 µM: 9.5%
[12]; Labeling Site ATP Loop, GAFGKVYLGQK
  inhibition at 2 µM: 4.2%
[12]; Labeling Site Lys1, LYAVKVVK
  inhibition at 2 µM: -7.7%
[13]
  inhibition at 2 µM: -1.4%

## Cc1cccc(-c2nc(Nc3ccncc3)c3ccccc3n2)n1 [NK215]
[14]
  KINOMEscan EPHA1: 23
